Data as given in patent US20240207427A1, “SELECTIVE DRUG RELEASE FROM INTERNALIZED CONJUGATES OF BIOLOGICALLY ACTIVE COMPOUNDS” (priority 2021, published 2024).
Like-named read-outs stand apart in the source and are kept apart here.

Tests used:
Assay type in all cases: cell-based
[1] = test system: renal carcinoma cells (786-O); test: In vitro potency (CellTiter-Glo, 96 h), 786-O; settings: Homo sapiens, 786-0, 96 h
How it was run: (§1)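 Four-day continuous exposure at 37 °C to serially diluted ADC or free camptothecin payload, in RPMI 1640 with 20% FBS after 24 h pre-plating. Luminescent signal gave IC50 (ng/mL; nmol/L).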

[2] = test system: melanoma cells (A2058); test: In vitro potency (CellTiter-Glo, 96 h), A2058; settings: Homo sapiens, A2058, 96 h
How it was run: (§2)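 RPMI 1640/20% FBS cultures, log phase, plated 24 h → ADC titration → 4 d, 37 °C → luminescence → IC50, ng/mL.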

[3] = test system: pancreatic cancer cells (BxPC3); test: In vitro potency (CellTiter-Glo, 96 h), BxPC3; settings: Homo sapiens, BXPC-3, 96 h
How it was run: (§3)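 Cells in log-phase growth are plated in RPMI 1640/20% FBS for 24 h. Serially diluted conjugates are then added, and plates are kept at 37 °C for 4 days before ATP-based luminescence gives growth inhibition.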

[4] = test system: non-small-cell lung cancer cells (Calu1); test: In vitro potency (CellTiter-Glo, 96 h), Calu1; settings: Homo sapiens, Calu-1, 96 h
How it was run: as §2

[5] = test system: anaplastic large cell lymphoma cells (DEL); test: In vitro potency (CellTiter-Glo, 96 h), DEL
How it was run: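 Cells in log-phase growth seeded 24 h in RPMI 1640 with 20% FBS, then exposed to serially diluted ADC or CPT free drug for 96 h at 37 °C. Growth inhibition read by CellTiter-Glo luminescence; IC50 reported in ng/mL or nmol/L.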

[6] = test system: anaplastic large cell lymphoma cells (DELBVR); test: In vitro potency (CellTiter-Glo, 96 h), DELBVR
How it was run: as §1

[7] = test system: anaplastic large cell lymphoma cells (Karpas299); test: In vitro potency (CellTiter-Glo, 96 h), Karpas299; settings: Homo sapiens, KARPAS-299, 96 h
How it was run: as §1

[8] = test system: Hodgkin's lymphoma cells (L540cy); test: In vitro potency (CellTiter-Glo, 96 h), L540cy
How it was run: as §1

[9] = test system: Ls174T cells; test: In vitro potency (CellTiter-Glo, 96 h), Ls174T; settings: Homo sapiens, LS174T
How it was run: as §1

[10] = test system: breast cancer cells (MDA-MB-231); test: In vitro potency (CellTiter-Glo, 96 h), MDA-MB-231; settings: Homo sapiens, MDA-MB-231, 96 h
How it was run: as §1

[11] = test system: acute myeloid leukemia cells (MOLM-13); test: In vitro potency (CellTiter-Glo, 96 h), MOLM-13; settings: Homo sapiens, MOLM-13, 96 h
How it was run: as §3

[12] = test system: B-lymphocyte cancer cells (SU-DHL4); test: In vitro potency (CellTiter-Glo, 96 h), SU-DHL-4; settings: Homo sapiens, SU-DHL-4, 96 h
How it was run: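 Following a 24 h seeding period in 20% FBS-supplemented RPMI 1640, log-phase cells receive graded concentrations of conjugate. Incubation runs for 4 days at 37 °C, after which luminescence is recorded and IC50 calculated in ng/mL.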

[13] = CPT free drugs, Table 24, CellTiter-Glo after 96 h exposure, read-out: IC50 (nmol/L) 786-O
[14] = CPT free drugs, Table 24, CellTiter-Glo after 96 h exposure, read-out: IC50 (nmol/L) A2058
[15] = CPT free drugs, Table 24, CellTiter-Glo after 96 h exposure, read-out: IC50 (nmol/L) BxPC3
[16] = CPT free drugs, Table 24, CellTiter-Glo after 96 h exposure, read-out: IC50 (nmol/L) Calu1
[17] = CPT free drugs, Table 24, CellTiter-Glo after 96 h exposure, read-out: IC50 (nmol/L) DEL
[18] = CPT free drugs, Table 24, CellTiter-Glo after 96 h exposure, read-out: IC50 (nmol/L) DELBVR
[19] = CPT free drugs, Table 24, CellTiter-Glo after 96 h exposure, read-out: IC50 (nmol/L) Karpas299
[20] = CPT free drugs, Table 24, CellTiter-Glo after 96 h exposure, read-out: IC50 (nmol/L) L540cy
[21] = CPT free drugs, Table 24, CellTiter-Glo after 96 h exposure, read-out: IC50 (nmol/L) Ls174T
[22] = CPT free drugs, Table 24, CellTiter-Glo after 96 h exposure, read-out: IC50 (nmol/L) MDAMB231
[23] = CPT free drugs, Table 24, CellTiter-Glo after 96 h exposure, read-out: IC50 (nmol/L) MOLM-13
[24] = CPT free drugs, Table 24, CellTiter-Glo after 96 h exposure, read-out: IC50 (nmol/L) SU-DHL-4
[25] = read-out: 786-O IC50, camptothecin free drug, 96 h
[26] = read-out: BxPC3 IC50, camptothecin free drug, 96 h
[27] = read-out: DEL IC50, camptothecin free drug, 96 h
[28] = read-out: DELBVR IC50, camptothecin free drug, 96 h
[29] = read-out: Karpas299 IC50, camptothecin free drug, 96 h
[30] = read-out: L540cy IC50, camptothecin free drug, 96 h
[31] = 96 h, read-out: Ls174T IC50, camptothecin free drug, 96 h
[32] = read-out: MDAMB231 IC50, camptothecin free drug, 96 h
[33] = read-out: MOLM-13 IC50, camptothecin free drug, 96 h
[34] = read-out: SU-DHL-4 IC50, camptothecin free drug, 96 h

SMILES	IC50 [1, 13]	IC50 [2, 14]	IC50 [3, 15]	IC50 [4, 16]	IC50 [5, 17]	IC50 [6, 18]	IC50 [7, 19]	IC50 [8, 20]	IC50 [9, 21]	IC50 [10, 22]	IC50 [11, 23]	IC50 [12, 24]	also measured
CC[C@@]1(O)C(=O)OCc2c1cc1n(c2=O)Cc2c-1nc1cc3c(cc1c2CN)CCC3 [Compound 2v]	33 nmol/L	19 nmol/L	165 nmol/L	247 nmol/L	9 nmol/L	14 nmol/L	37 nmol/L	19 nmol/L	17 nmol/L	34 nmol/L	350 nmol/L	33.8 nmol/L	
CC[C@@]1(O)C(=O)OCc2c1cc1n(c2=O)Cc2c-1nc1ccc3c(c1c2CN)CCC3 [Compound 2u]	10 nmol/L	4 nmol/L	23 nmol/L	61 nmol/L	2 nmol/L	2 nmol/L	7 nmol/L	5 nmol/L	5.3 nmol/L	6 nmol/L	48.3 nmol/L	4 nmol/L	
CC[C@@]1(O)C(=O)OCc2c1cc1n(c2=O)Cc2c-1nc1cc3c(cc1c2CNCCS(N)(=O)=O)OCO3 [Compound 7d]													IC50 [1, 25]: 37 nmol/L; IC50 ([2]; read-out: A2058 IC50): 10 nmol/L; IC50 [3, 26]: 38 nmol/L; IC50 ([4]; read-out: Calu1 IC50): 1000 nmol/L; IC50 [5, 27]: 8 nmol/L; IC50 [6, 28]: 13 nmol/L; IC50 [7, 29]: 39 nmol/L; IC50 [8, 30]: 16 nmol/L; IC50 [9, 31]: 18 nmol/L; IC50 [10, 32]: 195 nmol/L; IC50 [11, 33]: 61 nmol/L; IC50 [12, 34]: 20 nmol/L
CC[C@@]1(O)C(=O)OCc2c1cc1n(c2=O)Cc2c-1nc1ccc3c(c1c2CN)OCC3 [Compound 2t]	101 nmol/L	39 nmol/L	230 nmol/L	≥ 1000 nmol/L	18 nmol/L	33 nmol/L	133 nmol/L	43 nmol/L	18 nmol/L	73 nmol/L	179 nmol/L	51 nmol/L	
CC[C@@]1(O)C(=O)OCc2c1cc1n(c2=O)Cc2c-1nc1cc(F)c(C)c(Br)c1c2CN [Compound 2q, (S)-11-(aminomethyl)-10-bromo-4-ethyl-8-fluoro-4-hydroxy-9-methyl-1,12-dihydro-14H-pyrano[3′,4′:6,7]indolizino[1,2-b]quinoline-3,14(4H)-dione]													IC50 ([1]; read-out: IC50 (nmol/L) 786-O, CPT free drugs, Table 24, CellTiter-Glo after 96 h exposure): 4 nmol/L; IC50 ([2]; read-out: IC50 (nmol/L) A2058): 4.8 nmol/L; IC50 ([3]; read-out: IC50 (nmol/L) BxPC3, CPT free drugs, Table 24, CellTiter-Glo after 96 h exposure): 50.8 nmol/L; IC50 ([4]; read-out: IC50 (nmol/L) Calu1): 78 nmol/L; IC50 ([5]; read-out: IC50 (nmol/L) DEL, CPT free drugs, Table 24, CellTiter-Glo after 96 h exposure): 1 nmol/L; IC50 ([6]; read-out: IC50 (nmol/L) DELBVR, CPT free drugs, Table 24, CellTiter-Glo after 96 h exposure): 1 nmol/L; IC50 ([7]; read-out: IC50 (nmol/L) Karpas299, CPT free drugs, Table 24, CellTiter-Glo after 96 h exposure): 2.6 nmol/L; IC50 ([8]; read-out: IC50 (nmol/L) L540cy, CPT free drugs, Table 24, CellTiter-Glo after 96 h exposure): 4 nmol/L; IC50 ([9]; 96 h, read-out: IC50 (nmol/L) Ls174T, CPT free drugs, Table 24, CellTiter-Glo after 96 h exposure): 5 nmol/L; IC50 ([10]; read-out: IC50 (nmol/L) MDAMB231, CPT free drugs, Table 24, CellTiter-Glo after 96 h exposure): 5.4 nmol/L; IC50 ([11]; read-out: IC50 (nmol/L) MOLM-13, CPT free drugs, Table 24, CellTiter-Glo after 96 h exposure): 17.3 nmol/L; IC50 ([12]; read-out: IC50 (nmol/L) SU-DHL-4, CPT free drugs, Table 24, CellTiter-Glo after 96 h exposure): 1.5 nmol/L
CC[C@@]1(O)C(=O)OCc2c1cc1n(c2=O)Cc2c-1nc1cc3c(cc1c2CN1CCC(NC(=O)OC(C)(C)C)CC1)OCO3 [Compound 7y]													IC50 ([1]; camptothecin free drug, 96 h, read-out: 786-O IC50): 31 nmol/L; IC50 ([2]; camptothecin free drug, 96 h, read-out: A2058 IC50): 7 nmol/L; IC50 ([3]; camptothecin free drug, 96 h, read-out: BxPC3 IC50): 28 nmol/L; IC50 ([4]; camptothecin free drug, 96 h, read-out: Calu1 IC50): 896 nmol/L; IC50 ([5]; camptothecin free drug, read-out: DEL IC50): 8 nmol/L; IC50 ([6]; camptothecin free drug, read-out: DELBVR IC50): 14 nmol/L; IC50 ([7]; camptothecin free drug, 96 h, read-out: Karpas299 IC50): 36 nmol/L; IC50 ([8]; camptothecin free drug, read-out: L540cy IC50): 15 nmol/L; IC50 ([9]; camptothecin free drug, 96 h, read-out: Ls174T IC50): 17 nmol/L; IC50 ([10]; camptothecin free drug, 96 h, read-out: MDAMB231 IC50): 140 nmol/L; IC50 ([11]; camptothecin free drug, 96 h, read-out: MOLM-13 IC50): 68 nmol/L; IC50 ([12]; camptothecin free drug, 96 h, read-out: SU-DHL-4 IC50): 23 nmol/L
CC[C@@]1(O)C(=O)OCc2c1cc1n(c2=O)Cc2c-1nc1ccc(C(F)(F)F)cc1c2CN [Compound 2g]	102 nmol/L	37 nmol/L	258 nmol/L	755 nmol/L	17.6 nmol/L	33.5 nmol/L	221 nmol/L	62 nmol/L	65.3 nmol/L	79 nmol/L	598 nmol/L	60 nmol/L	
CC[C@@]1(O)C(=O)OCc2c1cc1n(c2=O)Cc2c-1nc1cc(F)c(OC)c(F)c1c2CN [Compound 2x]	18 nmol/L	5 nmol/L	34 nmol/L	27 nmol/L	4 nmol/L	5 nmol/L	11 nmol/L	6 nmol/L	16 nmol/L	91 nmol/L	19 nmol/L	7 nmol/L	
CC[C@@]1(O)C(=O)OCc2c1cc1n(c2=O)Cc2c-1nc1cc3c(cc1c2CNCCCS(C)(=O)=O)OCO3 [Compound 7c]													IC50 [1, 25]: 5 nmol/L; IC50 ([2]; read-out: A2058 IC50): 2 nmol/L; IC50 [3, 26]: 5 nmol/L; IC50 ([4]; read-out: Calu1 IC50): 91 nmol/L; IC50 [5, 27]: 1 nmol/L; IC50 [6, 28]: 2 nmol/L; IC50 [7, 29]: 5 nmol/L; IC50 [8, 30]: 2 nmol/L; IC50 [9, 31]: 4 nmol/L; IC50 [10, 32]: 31 nmol/L; IC50 [11, 33]: 4 nmol/L; IC50 [12, 34]: 3 nmol/L
CC[C@@]1(O)C(=O)OCc2c1cc1n(c2=O)Cc2c-1nc1cc3c(cc1c2CNCC(O)CO)OCO3 (stereo partly drawn) [Compound 7x]													IC50 [1, 25]: 88 nmol/L; IC50 ([2]; read-out: A2058 IC50): 18 nmol/L; IC50 [3, 26]: 79 nmol/L; IC50 ([4]; read-out: Calu1 IC50): > 1000 nmol/L; IC50 [5, 27]: 16 nmol/L; IC50 [6, 28]: 20 nmol/L; IC50 [7, 29]: 54 nmol/L; IC50 [8, 30]: 32 nmol/L; IC50 [9, 31]: > 1000 nmol/L; IC50 [10, 32]: 523 nmol/L; IC50 [11, 33]: 574 nmol/L; IC50 [12, 34]: 41 nmol/L
CCc1cc2nc3c(c(CN)c2c(F)c1C)Cn1c-3cc2c(c1=O)COC(=O)[C@]2(O)CC [Compound 2w]	649 nmol/L	286 nmol/L	> 1000 nmol/L	> 1000 nmol/L	283 nmol/L	271 nmol/L	> 1000 nmol/L	922 nmol/L	843 nmol/L	> 1000 nmol/L	> 1000 nmol/L	958 nmol/L	
CC[C@@]1(O)C(=O)OCc2c1cc1n(c2=O)Cc2c-1nc1ccc(O)cc1c2CN [Compound 3a]	52.3 nmol/L	16 nmol/L	135 nmol/L	388 nmol/L	10 nmol/L	14 nmol/L	59.4 nmol/L	18.2 nmol/L	37.1 nmol/L	38.5 nmol/L	58 nmol/L	16.4 nmol/L	
